Data: PMC11997503, “A BPTF-specific PROTAC degrader enhances NK cell-based cancer immunotherapy” (Molecular Therapy, 2025)

Experiments:
CECR2 = target: T1, CECR2 (Homo sapiens, UniProt Q9BXF3); assay: SPR positive control (Figure S7D); type: binding
T1 construct: bromodomain

BRD9 = target: T2, BRD9 (Homo sapiens, UniProt Q9H8M2); assay: SPR (Biacore T200, NiHC1500M chip); type: binding
T2 construct: bromodomain
T2 sequence (Q9H8M2 134-240 limits assumed): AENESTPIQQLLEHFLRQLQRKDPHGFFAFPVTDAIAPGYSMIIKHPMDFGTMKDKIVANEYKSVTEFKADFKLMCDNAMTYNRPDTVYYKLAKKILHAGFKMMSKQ

BPTF = target: T3, BPTF (Homo sapiens, UniProt Q12830); assay: SPR (Biacore T200, NiHC1500M chip); type: binding
T3 construct: bromodomain

CRBN = target: T4, CRBN (Homo sapiens, UniProt Q96SW2); assay: co-IP of BPTF with CRBN in 8d-treated Huh7 cells; pomalidomide rescue; N-methyl glutarimide control […] inactive; type: cell-based
T4 construct: with BPTF
T4 sequence (Q96SW2 whole entry, other chains not shown): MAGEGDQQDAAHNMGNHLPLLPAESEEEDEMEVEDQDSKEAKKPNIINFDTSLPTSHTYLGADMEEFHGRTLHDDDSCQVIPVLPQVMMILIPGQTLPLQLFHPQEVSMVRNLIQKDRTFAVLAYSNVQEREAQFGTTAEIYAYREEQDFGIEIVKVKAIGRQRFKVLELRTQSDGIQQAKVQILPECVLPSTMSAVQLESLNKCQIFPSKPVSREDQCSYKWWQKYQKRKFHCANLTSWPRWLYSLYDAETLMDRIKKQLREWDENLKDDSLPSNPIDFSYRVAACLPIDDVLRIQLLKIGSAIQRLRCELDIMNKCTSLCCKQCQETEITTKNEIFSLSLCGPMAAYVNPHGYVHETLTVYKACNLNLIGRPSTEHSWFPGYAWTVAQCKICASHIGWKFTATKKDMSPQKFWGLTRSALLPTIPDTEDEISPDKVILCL

T1 sequence (Q9BXF3 434-538 limits assumed): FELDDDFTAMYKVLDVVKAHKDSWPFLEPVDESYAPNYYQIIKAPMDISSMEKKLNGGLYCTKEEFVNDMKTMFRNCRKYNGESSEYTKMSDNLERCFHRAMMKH

| Kd (BRD9) [µM] | Kd (BPTF) [µM] | SMILES | CECR2 bromodomain binding affinity (CECR2) | co-IP of BPTF with CRBN in 8d-treated Huh7 cells; pomalidomide rescue; N-methyl (CRBN) |
| --- | --- | --- | --- | --- |
| – | – | CN(C)CCCOc1ccc(-c2cc(NCCCn3cccn3)nc(S(C)(=O)=O)n2)cc1 [TP238] | minimal affinity for the CECR2 bromodomain (Figure S7D), which is known to strongly bind to TP238 as a positive control | – |
| 28.8 | 0.563 | CS(=O)(=O)c1nc(NCCCn2cccn2)cc(-c2ccc(NCc3cn(CCOCCOCCOCCOCCOCCNc4cccc5c4C(=O)N(C4CCC(=O)NC4=O)C5=O)nn3)cc2)n1 (stereo not shown) [8d, 4-((17-(4-(((4-(6-((3-(1H-pyrazol-1-yl)propyl)amino)-2-(methylsulfonyl)pyrimidin-4-yl)phenyl)amino)methyl)-1H-1,2,3-triazol-1-yl)-3,6,9,12,15 pentaoxaheptadecyl)amino)-2-(2,6-dioxopiperidin-3-yl) isoindoline-1,3-dione] | – | through direct recruitment of CRBN, 8d facilitates the proteasome-dependent selective degradation of BPTF |
